Values quoted from earlier work in patent publication US20040116411A1, “Combination HIV therapy including camptothecin” (priority 2000, published 2004).

Columns and labels:
[1] = system: HIV; settings: by disrupting gp41 conformational changes associated with membrane fusion
[2] = system: viral-associated topoisomerase I; settings: HIV infection of human H9 cells, in vitro
[3] = system: equine infectious anemia virus (EIAA); settings: chronically infected cells
[4] = system: Moloney murine leukemia virus (MMLV)
[5] = system: HIV-1 LTR; settings: human CD4+ lymphocytic cell line RPMI 8402
[6] = system: human CD4+ lymphocytic cell line RPMI 8402; settings: at the concentration used
[7] = system: rous sarcoma virus (RSV) promoter
[8] = system: gro
[9] = system: HIV-1

In the case of enfuvirtide, the infection in vitro [1] is given as “inhibit infection in vitro”.

For `CC[C@@]1(O)C(=O)OCc2c1cc1n(c2=O)Cc2cc3ccccc3nc2-1` [camptothecin, 20(S)-camptothecin], the “activity of the viral-associated topoisomerase I” value [2] is listed as “significantly reduced”, the EIAA replication [3] is listed as “inhibits” and the MMLV replication [4] is listed as “inhibits”. For the same compound, the “expression of downstream reporter gene under the control of HIV-1 LTR” value [5] was “inhibitory effects”, the cell survival [6] was “not significantly affected” and the “promoter activity of rous sarcoma virus (RSV)” value [7] was “did not inhibit”. The “expression of gro, a cellular gene” value [8] was “did not inhibit”.

For `CC[C@@]1(O)C(=O)OCc2c1cc1n(c2=O)Cc2cc3c(CN(C)C)c(O)ccc3nc2-1` [Topotecan], the antiviral effects ([9]; CPT-K5 cell line, PBMC acutely infected with clinical isolates, OM10.1 cells latently infected, activated by TNF-α) is given as “antiviral effects of topotecan were observed” and the “acute and chronic HIV-1 infections” value ([9]; in vitro) is given as “inhibit”.
